Reference: ChEMBL document CHEMBL1157920, “Inhibition of antigen-induced degranulation by aryl compounds isolated from the bark of Betula platyphylla in RBL-2H3 cells” (2010)

Tests used:
[1] = test system: RBL-2H3; assay: Inhibition of anti-DNP-IgE-induced degranulation in rat RBL2H3 cells assessed as betahexosaminidase released at 100 uM after 20 mins by microplate reader assay; format: functional; details: RBL-2H3, 20 min
[2] = test system: RBL-2H3; assay: Inhibition of anti-DNP-IgE-induced degranulation in rat RBL2H3 cells assessed as betahexosaminidase released at 10 uM after 20 mins by microplate reader assay; format: functional; details: RBL-2H3, 20 min

| SMILES | inhibition at 100 µM [1] [%] | inhibition at 10 µM [2] [%] |
| --- | --- | --- |
| Oc1ccc(CCCC[C@@H](O)CCc2ccc(O)cc2)cc1 | 31.5 | 19.2 |
| C[C@H](CCc1ccc(O)cc1)O[C@@H]1O[C@H](CO[C@@H]2OC[C@@](O)(CO)[C@@H]2O)[C@@H](O)[C@H](O)[C@H]1O [APIOSYLRHODODENDRIN] | 26.7 | 25.4 |
| C[C@H](CCc1ccc(O)cc1)O[C@@H]1O[C@H](CO)[C@@H](O)[C@H](O)[C@H]1O | 42.3 | 25 |
| OC[C@]1(O)CO[C@@H](OC[C@H]2O[C@@H](O[C@H](CCCCc3ccc(O)cc3)CCc3ccc(O)cc3)[C@H](O[C@H]3OC[C@@](O)(CO)[C@@H]3O)[C@@H](O)[C@@H]2O)[C@H]1O | 23.2 | 22.1 |
| O=c1c(O)c(-c2ccc(O)c(O)c2)oc2cc(O)cc(O)c12 [QUERCETIN] | – | 32.9 |
| O=C(CCc1ccc(O)cc1)C[C@@H](CCc1ccc(O)cc1)O[C@@H]1O[C@H](CO[C@@H]2OC[C@](O)(CO)[C@H]2O)[C@@H](O)[C@H](O)[C@H]1O[C@H]1OC[C@@](O)(CO)[C@@H]1O | 23.4 | 11.8 |
| OC[C@]1(O)CO[C@@H](OC[C@H]2O[C@@H](O[C@H](CCCCc3ccc(O)cc3)CCc3ccc(O)cc3)[C@H](O)[C@@H](O)[C@@H]2O)[C@H]1O [ACEROSIDEVIII] | 22.4 | 11.7 |
| C[C@@H](O)CCc1ccc(O)cc1 | 36.5 | 29.7 |
| C[C@H](CCc1ccc(O)cc1)O[C@H]1O[C@H](COC(=O)C[C@@](C)(O)CC(=O)O)[C@@H](O)[C@H](O)[C@H]1O | 20 | 26.6 |
